Laboratory results as given in PubChem BioAssay (NCI).
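Dose response: 5 concentrations. Exposure: 48 h. Format: 96-well plates. Endpoint: linear interpolation; highest concentration if not reached. TGI marks complete inhibition of growth.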

Experiments:
Experiment in all cases: NCI-60 cell line screen, 48 h
NCI-H460 lung = system: NCI-H460 lung
RPMI-8226 leukemia = system: RPMI-8226 leukemia
SR leukemia = system: SR leukemia
MCF7 breast = system: MCF7 breast
OVCAR-3 ovarian = system: OVCAR-3 ovarian
SK-MEL-28 melanoma = system: SK-MEL-28 melanoma
KM12 colon = system: KM12 colon
UACC-257 melanoma = system: UACC-257 melanoma
DU-145 prostate = system: DU-145 prostate
PC-3 prostate = system: PC-3 prostate
MALME-3M melanoma = system: MALME-3M melanoma
NCI-H23 lung = system: NCI-H23 lung
EKVX NSCLC = system: EKVX NSCLC
HCT-15 colon = system: HCT-15 colon
UO-31 renal = system: UO-31 renal
SK-MEL-5 melanoma = system: SK-MEL-5 melanoma
MDA-MB-231 breast = system: MDA-MB-231 breast
HCC-2998 colon = system: HCC-2998 colon
MDA-N = system: MDA-N
OVCAR-8 ovarian = system: OVCAR-8 ovarian

SMILES	TGI (NCI-H460 lung)	TGI (RPMI-8226 leukemia)	TGI (SR leukemia)	TGI (MCF7 breast)	TGI (OVCAR-3 ovarian)	TGI (SK-MEL-28 melanoma)	TGI (KM12 colon)	TGI (UACC-257 melanoma)	TGI (DU-145 prostate)	TGI (PC-3 prostate)	TGI (MALME-3M melanoma)	TGI (NCI-H23 lung)	TGI (EKVX NSCLC)	TGI (HCT-15 colon)	TGI (UO-31 renal)	TGI (SK-MEL-5 melanoma)	TGI (MDA-MB-231 breast)	TGI (HCC-2998 colon)	TGI (MDA-N)	TGI (OVCAR-8 ovarian)
COc1cc(-c2[o+]c3cc(O)cc(O)c3cc2O)cc(O)c1O	> 100 µM	> 100 µM	> 100 µM	46.3 µM	> 100 µM	> 100 µM	> 100 µM	> 100 µM	> 100 µM	> 100 µM	> 100 µM	> 100 µM	> 100 µM	> 100 µM	> 100 µM	> 100 µM	> 100 µM	> 100 µM	> 100 µM	> 100 µM
CC(C)(C)c1cc2c(O)c(c1)Cc1cc(C(C)(C)C)cc(c1O)Cc1cc(C(C)(C)C)cc(c1O)Cc1cc(C(C)(C)C)cc(c1O)Cc1cc(C(C)(C)C)cc(c1O)Cc1cc(C(C)(C)C)cc(c1O)Cc1cc(C(C)(C)C)cc(c1O)Cc1cc(C(C)(C)C)cc(c1O)C2	> 50 µM	> 50 µM	> 50 µM	> 50 µM	> 50 µM	> 50 µM	> 50 µM	> 50 µM	> 50 µM	> 50 µM	> 50 µM	> 50 µM	> 50 µM	> 50 µM	> 50 µM	> 50 µM	> 50 µM	> 50 µM	> 50 µM	> 50 µM
CCN(CC)CCNc1ccc2nnn3c4ccc(O)cc4c(=O)c1c23	4.64 µM	19.8 µM	1.48 µM	28.1 µM	22.7 µM	24.2 µM	12.8 µM	24.9 µM	27.6 µM	16.9 µM	19.4 µM	19.7 µM	21.5 µM	17.6 µM	4.06 µM	15.7 µM	18.2 µM	15.4 µM	17.5 µM	17.5 µM
COC(=O)[C@H](Cc1ccc(OC(C)(C)C)cc1)N[C@H](C)C(=O)N[C@@H](Cc1ccccc1)C(=O)OCc1ccccc1	> 100 µM	> 100 µM	70.5 µM	81.5 µM	> 100 µM	> 100 µM	> 100 µM	> 100 µM	> 100 µM	> 100 µM	> 100 µM	> 100 µM	> 100 µM	> 100 µM	43.7 µM	> 100 µM	> 100 µM	> 100 µM	> 100 µM	> 100 µM
OCCOc1ccccc2cccc1-2	> 100 µM	> 100 µM	> 100 µM	> 100 µM	> 100 µM	> 100 µM	> 100 µM	> 100 µM	> 100 µM	> 100 µM	> 100 µM	> 100 µM	> 100 µM	> 100 µM	> 100 µM	> 100 µM	> 100 µM	> 100 µM	> 100 µM	> 100 µM
c1ccc2c(c1)CCc1[nH]c3c(c1-2)-c1ccccc1CC3	> 100 µM	> 100 µM	> 100 µM	> 100 µM	> 100 µM	> 100 µM	> 100 µM	> 100 µM	> 100 µM	> 100 µM	> 100 µM	> 100 µM	> 100 µM	> 100 µM	> 100 µM	> 100 µM	> 100 µM	> 100 µM	> 100 µM	> 100 µM
